From publication PMC9272937, “Anti-breast cancer sinomenine derivatives via mechanisms of apoptosis induction and metastasis reduction” (Journal of Enzyme Inhibition and Medicinal Chemistry, 2022) come the findings set out here.

Test [1] relates to human mammary gland tumour cell line MCF-7. Put plainly: CCK-8 antiproliferative assay, MCF-7. The test is classed as cell-based. The note with it: for IC50: Homo sapiens, MCF7, 48 h, read-out: IC50 MCF-7; for SI MCF-7 (selectivity index): SI = IC50(MCF-10A)/IC50(MCF-7). On the procedure:
(§1) The antiproliferative activities of target compounds were examined by CCK-8 assay in three cancer cells (human lung cancer cell line A549, human mammary gland tumour cell line MCF-7 and human TNBC cell line MDA-MB-231) and one normal cell (human normal breast cell line MCF10A). All cell lines were sourced from KeyGEN Biotech, […], China, and a standard DMEM medium was applied to all cell cultures then subjected to 24 h incubation at 37 °C in a humidified environment with 5% CO2. After that logarithmic growing cells were plated on 96-well plates with 8,000 cells per well in a […] medium for 24 h incubation at 37 °C with 5% CO2. The DMEM medium with bovine serum was removed from each well. Then, prerequisite target compounds and positive controls were added to different cell lines in a predetermined concentration regiment for 48 h culture.
For orientation: Tetrazolium dyes change colour on reduction, which living cells bring about.

Test [2] can be described thus: Griess assay, NO-releasing capacity. Conditions: 10^−4 mol/l compound, L-cysteine, 37 °C, 15-180 min. On the procedure:
The NO-releasing capacity of each target compound was determined by the colorimetric method under the instructions of the manufacturer. Preparation of standard curves of 0, 1.56, 3.13, 6.25, 12.5, 25, 50 and 100 μmol/L nitrite nitrogen series standard solution was prepared. 50 μL to 96-well plate was added respectively and then mixed with 50 μL Griess I and Griess II; the absorption value was measured at 540 nm wavelength. A standard curve was drawn from the obtained data. Compounds were formulated into 10^−4 mol/l with PBS (pH = 7.4) and pharmaceutical DMSO. The newly formulated L-cysteine solution 100 μL ([…]) was added and incubated at 37 °C for 15, 30, 45, 60, 90, 120, 150 and180 min, respectively. Griess I and II recovered to room temperature, 50 μL of compounds 7A–E(a–c) were added respectively into the 96-well plate, and then 50 μL of Griess I and 50 μL of Griess II were added in sequence, with the absorbance tested at 540 nm. The amount of NO released was then calculated according to the standard curve.
A general note: Griess reagent forms a coloured azo dye with nitrite.

Test [3] deals with human normal breast cell line MCF10A. Put plainly: CCK-8 assay, normal cells MCF10A. It counts as cell-based. Conditions: MCF-10A, CCK-8, 48 h, mean ± SD of three experiments. On the procedure:
as §1

For test [4], the system named is human TNBC cell line MDA-MB-231. Put plainly: CCK-8 antiproliferative assay, MDA-MB-231. It counts as cell-based. The note with it: for IC50: Homo sapiens, MDA-MB-231, 48 h, read-out: IC50 MDA-MB-231; for SI MDA-MB-231 (selectivity index): SI = IC50(MCF-10A)/IC50(MDA-MB-231). As for the experimental part: as §1
The test system of test [5] is human lung cancer cell line A549. Description: CCK-8 antiproliferative assay, A549. Conditions: Homo sapiens, A549; CCK-8, 48 h, mean ± SD of three experiments. The test is classed as cell-based. On the procedure:
as §1

As usually defined, the IC50 is the concentration that inhibits the measured activity by half.

`COC1=CC2[C@H]3Cc4ccc(OC)c(OC(=O)CCC(=O)OCCCCOc5no[n+]([O-])c5S(=O)(=O)c5ccccc5)c4[C@@]2(CCN3C)CC1=O` (stereo partly drawn) [7Ca, 4–(4-((4-(((4bs,9R)-3,7-Dimethoxy-11-methyl-6-oxo-6,8a,9,10-tetrahydro-5H-9,4b-(epiminoethano)phenanthren-4-yl)oxy)-4-oxobutanoyl)oxy)butoxy)-3-(phenylsulfonyl)-1,2,5-oxadiazole 2-oxide]: the IC50 in test [1] stood at 2.55 ± 0.14 µM; in test [3], 40.7 ± 2.79 µM; in test [4] it was 2.26 ± 0.19 µM; in test [5], 2.97 ± 0.14 µM. For the same molecule, the “SI MCF-7 (selectivity index)” value in test [1] came out at 15.95. Besides, in test [2], the NO peak releasing entry is reported as “exceeding 40 μmol/L”. The “SI MDA-MB-231 (selectivity index)” value in test [4] is 18.
Regarding `COC1=CC2[C@H]3Cc4ccc(OC)c(OC(=O)CCC(=O)OCCCCCOc5no[n+]([O-])c5S(=O)(=O)c5ccccc5)c4[C@@]2(CCN3C)CC1=O` (stereo partly drawn) [7Da, 4-((5-((4-(((4bs,9R)-3,7-Dimethoxy-11-methyl-6-oxo-6,8a,9,10-tetrahydro-5H-9,4b-(epiminoethano)phenanthren-4-yl)oxy)-4-oxobutanoyl)oxy)pentyl)oxy)-3-(phenylsulfonyl)-1,2,5-oxadiazole 2-oxide], the IC50 was found to be 1.8 ± 0.11 µM in test [1], 24.7 ± 1.67 µM in test [3], 0.92 ± 0.01 µM in test [4] and 2.79 ± 0.07 µM in test [5]. The “SI MCF-7 (selectivity index)” value in test [1] was 13.74. In addition, the NO peak releasing result in test [2] is listed as “exceeding 40 μmol/L”. For the same molecule, in test [4], the “SI MDA-MB-231 (selectivity index)” value amounted to 26.89.
Take `COC1=CC2[C@H]3Cc4ccc(OC)c(OC(=O)c5ccccc5C(=O)OCCCCCOc5no[n+]([O-])c5S(=O)(=O)c5ccccc5)c4[C@@]2(CCN3C)CC1=O` (stereo partly drawn) [7Dc, 4-((5-((2-((((4bs,9R)-3,7-Dimethoxy-11-methyl-6-oxo-6,8a,9,10-tetrahydro-5H-9,4b-(epiminoethano)phenanthren-4-yl)oxy)carbonyl)benzoyl)oxy)pentyl)oxy)-3-(phenylsulfonyl)-1,2,5-oxadiazole 2-oxide]: the IC50 in test [1] worked out at 2.18 ± 0.1 µM; in test [3], 19.9 ± 1.43 µM; in test [4] it was 1.88 ± 0.09 µM; in test [5] it was 1.63 ± 0.05 µM. For the same molecule, in test [1], the “SI MCF-7 (selectivity index)” value turned out to be 9.11. Moreover, the NO peak releasing entry in test [2] was “exceeding 40 μmol/L”. The “SI MDA-MB-231 (selectivity index)” value in test [4] is 10.56.
